Patent publication US7118895B2, “Process for producing aglycon by using diglycosidase and flavor-improved food containing the aglycon and converting agent to be used in the process” (Amano Enzyme Inc., priority 2000, dated 2006)

Tested on: Crude diglycosidase
Experiment: Examination of temperature in the conversion into isoflavone aglycons by diglycosidase using soybean materials
Format: biochemical, Penicillium multicolor IAM7153
Conditions: for maximum isolation of aglycons: reaction at 55° C. for 6 hours
Description: Into 400 μL of 20 mM acetate buffer of pH 4.0 was suspended 50 mg of each of various soybean materials (roasted soy flour (manufactured by Fuji Shokuryo K.K.), soymilk (manufactured by Gitoh Shokuhin K.K.), defatted soybean (manufactured by Fuji Seiyu K.K.), concentrated soybean protein (manufactured by Fuji Seiyu K.K.)), whereby a substrate solution was prepared. Crude diglycosidase was diluted with 20 mM acetate buffer of pH 4.0 to be the glycosidase activity of 1.88 AU/mL. Fifty μL of the enzyme solution was mixed with the substrate solution and the whole was reacted at 80, 65, 55, 45, 37, or 30° C. at the total volume of 500 μL. To the reaction mixture was added 700 μL of ethanol after 0, 1, 3, and 6 hours of the reaction. After stirring and ultrasonication, the mixture was subjected to centrifugal separation at 15,000 rpm and 4° C. for 10 minutes. The supernatant was filtered through a filter and the existence of isoflavone glycosides and aglycon isoflavones contained in the reaction mixture was detected by HLPC.

## O=c1c(-c2ccc(O)cc2)coc2cc(O)cc(O)c12 [genistein]
30° C., heat treatment of enzyme no, reaction time 1 h
  Decomposition efficiency of genistin family in defatted soybean: 47.4%
30° C., heat treatment of enzyme no, reaction time 3 h
  Decomposition efficiency of genistin family in defatted soybean: 50.2%
30° C., heat treatment of enzyme no, reaction time 6 h
  Decomposition efficiency of genistin family in defatted soybean: 46.6%
30° C., heat treatment of enzyme yes, reaction time 6 h
  Decomposition efficiency of genistin family in defatted soybean: 50.2%
45° C., heat treatment of enzyme no, reaction time 0 h
  Decomposition efficiency of genistin family in defatted soybean: 14.5%
45° C., heat treatment of enzyme no, reaction time 1 h
  Decomposition efficiency of genistin family in defatted soybean: 49.2%
45° C., heat treatment of enzyme no, reaction time 3 h
  Decomposition efficiency of genistin family in defatted soybean: 51.8%
45° C., heat treatment of enzyme no, reaction time 6 h
  Decomposition efficiency of genistin family in defatted soybean: 54.6%
45° C., heat treatment of enzyme yes, reaction time 6 h
  Decomposition efficiency of genistin family in defatted soybean: 50.4%
55° C., heat treatment of enzyme no, reaction time 1 h
  Decomposition efficiency of genistin family in defatted soybean: 50.5%
55° C., heat treatment of enzyme no, reaction time 3 h
  Decomposition efficiency of genistin family in defatted soybean: 53.7%
55° C., heat treatment of enzyme no, reaction time 6 h
  Decomposition efficiency of genistin family in defatted soybean: 56.5%
55° C., heat treatment of enzyme yes, reaction time 6 h
  Decomposition efficiency of genistin family in defatted soybean: 51.9%
65° C., heat treatment of enzyme no, reaction time 0 h
  Decomposition efficiency of genistin family in defatted soybean: 14.5%
65° C., heat treatment of enzyme no, reaction time 1 h
  Decomposition efficiency of genistin family in defatted soybean: 49.9%
65° C., heat treatment of enzyme no, reaction time 3 h
  Decomposition efficiency of genistin family in defatted soybean: 51.8%
65° C., heat treatment of enzyme no, reaction time 6 h
  Decomposition efficiency of genistin family in defatted soybean: 54.5%
65° C., heat treatment of enzyme yes, reaction time 6 h
  Decomposition efficiency of genistin family in defatted soybean: 30.7%
80° C., heat treatment of enzyme no, reaction time 0 h
  Decomposition efficiency of genistin family in defatted soybean: 14.5%
80° C., heat treatment of enzyme no, reaction time 1 h
  Decomposition efficiency of genistin family in defatted soybean: 44.9%
80° C., heat treatment of enzyme no, reaction time 3 h
  Decomposition efficiency of genistin family in defatted soybean: 43.3%
80° C., heat treatment of enzyme no, reaction time 6 h
  Decomposition efficiency of genistin family in defatted soybean: 41.3%
80° C., heat treatment of enzyme yes, reaction time 6 h
  Decomposition efficiency of genistin family in defatted soybean: 19.6%
Concentrated soybean protein
  maximum isolation of aglycons: about 61%
Defatted soybean
  maximum isolation of aglycons: about 57%
Soy flour
  maximum isolation of aglycons: about 74%
soymilk
  maximum isolation of aglycons: about 80%
